Experimental data reported in US6794365B2, “Malonic acid derivatives, processes for their preparation their use and pharmaceutical compositions containing them” (Aventis Pharma Deutschland GmbH, priority 2000, dated 2004).
Structures can show the parent of a compound that is named as a salt. Where two headings read alike, the source gives them in different places.

Tests used:
[1] = molecular target: T1, factor Xa (Homo sapiens, UniProt P00742); test: In vitro Factor Xa assay (Test 1a), chromogenic substrate S-2765; format: biochemical; parameters: purchased Enzyme Research Laboratories, Inc; South Bend, Ind; conditions: Factor Xa inhibitory activity; Ki from IC50 corrected for substrate competition; 25° C., pH 7.8; read-out: Ki (FXa)
T1 sequence (P00742 235-488 limits assumed): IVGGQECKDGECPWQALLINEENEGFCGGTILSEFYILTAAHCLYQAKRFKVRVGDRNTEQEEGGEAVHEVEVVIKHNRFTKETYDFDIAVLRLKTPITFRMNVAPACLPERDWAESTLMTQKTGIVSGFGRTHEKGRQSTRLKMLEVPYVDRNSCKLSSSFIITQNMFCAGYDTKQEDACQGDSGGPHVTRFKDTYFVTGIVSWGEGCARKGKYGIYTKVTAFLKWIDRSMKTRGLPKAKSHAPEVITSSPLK
T1 sequence (P00742 41-179 partner limits assumed): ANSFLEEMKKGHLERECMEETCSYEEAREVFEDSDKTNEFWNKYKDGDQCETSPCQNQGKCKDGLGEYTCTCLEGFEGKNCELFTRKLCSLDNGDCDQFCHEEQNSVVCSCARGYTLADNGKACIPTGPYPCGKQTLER
Description: Purified enzymes are used in chromogenic assays. To determine the inhibition constant, the IC50 value is corrected for competition with substrate using the formula: […] where Km is the Michaelis-Menten-constant (Y.-C. Chen and W. H. Prusoff, Biochem. Pharmacol. 22: […] (1973), which is incorporated herein by reference). TBS-PEG buffer (50 mM Tris-Cl, pH 7.8, 200 mM NaCl, 0.05% (w/v) PEG-8000, 0.02% (w/v) NaN3) is used for this assay. The IC50 is determined by combining in appropriate wells of a Costar half-area microtiter plate 25 μl human factor Xa (Enzyme Research Laboratories, Inc.; South Bend, Ind.) in TBS-PEG; 40 μl 10% (v/v) DMSO in TBS-PEG (uninhibited control) or various concentrations of the compound to be tested diluted in 10% (v/v) DMSO in TBS-PEG; and substrate S-2765 (N-benzyloxycarbonyl-[…]-nitroanilide; Kabi Pharmacia, Inc.; Franklin Ohio) in TBS-PEG. […] The initial velocity of chromogenic substrate hydrolysis is measured by the change in absorbance at 405 nm using a Bio-tek Instruments kinetic plate reader ([…] 25° C. during the linear portion of the time course (usually 1.5 min after addition of substrate).

[2] = test system: thrombin and factor Xa; conditions: rate of inactivation thrombin vs factor Xa; cited from earlier work
[3] = TAP at less than about two fold aPTT prolongation; heparin at doses causing five fold aPTT increase; cited from earlier work
[4] = recombinantly-produced inhibitor; cited from earlier work
[5] = molecular target: T1, factor Xa; conditions: cited from earlier work
[6] = subcutaneous; cited from earlier work

Q: With `CN(Cc1ccccc1)C(=O)C(Cc1ccc(C(=N)N)cc1)C(=O)N[C@H](C(=O)N[C@@H](CCCNC(=N)N)C(N)=O)C1CCCCC1` (stereo partly drawn) [Example 144, N-Benzyl-2-(4-carbamimidoyl-benzyl)-N′-[(S)-(1-(S)-carbamoyl-4-guanidino-butylcarbamoyl)-cyclohexyl-methyl]-N-methyl-malonamide trifluoroacetic acid salt] as the molecule, how does the Ki [1] read?
A: 11 nM

Q: For heparin [reference compound], which “thrombin inactivated faster than factor Xa” value [2] is on record?
A: approximately 100 times

Q: And the “prevention of high-shear arterial thrombosis and reduced flow in graft” value [3]?
A: did not prevent thrombosis

Q: For “tick anticoagulant peptide (YNRLCIKPRDWIDECDSNEGGERAYFRNGKGGCDSFWICPEDHTGADYYSSYRDCFNACI; UniProt P17726 1-60, looked up) [TAP]”, which prevention of clotting [4] is on record?
A: prevent clotting

Q: What about the Ki [5] of the same molecule?
A: ~0.5 nM

Q: And the “prevention of high-shear arterial thrombosis and reduced flow in graft” value [3]?
A: effectively prevents

B1: antistasin (protein, UniProt P15358 18-136, looked up)
Antistasin: QGPFGPGCEEAGCPEGSACNIITDRCTCSGVRCRMHCPHGFQRSRYGCEFCKCRLEPMKATCDISECPEGMMCSRLTNKCDCKIDINCRKTCPNGLKRDKLGCEYCECRPKRKLIPRLS
Q: What does the source list for B1?
A: treatment effect in DIC model [6]: effective treatment; prevention of clotting [4]: prevent clotting; Ki [5]: 0.05 nM
